The record followed here is ChEMBL document CHEMBL4270560, “Novel curcumin analogue hybrids: Synthesis and anticancer activity” (Eur J Med Chem, 2018).

Assay [1] deals with SGC-7901. The experiment in a line: Cell cycle arrest in human SGC7901 cells assessed as accumulation at G2 phase at 1200 nM after 48 hrs by propidium iodide staining based flow cytometric analysis (reference value: 18.77%). The format is functional.
Assay [2] has as its target T1, Thioredoxin reductase 1, cytoplasmic (Homo sapiens, UniProt Q16881).
T1 sequence (Q16881 whole entry): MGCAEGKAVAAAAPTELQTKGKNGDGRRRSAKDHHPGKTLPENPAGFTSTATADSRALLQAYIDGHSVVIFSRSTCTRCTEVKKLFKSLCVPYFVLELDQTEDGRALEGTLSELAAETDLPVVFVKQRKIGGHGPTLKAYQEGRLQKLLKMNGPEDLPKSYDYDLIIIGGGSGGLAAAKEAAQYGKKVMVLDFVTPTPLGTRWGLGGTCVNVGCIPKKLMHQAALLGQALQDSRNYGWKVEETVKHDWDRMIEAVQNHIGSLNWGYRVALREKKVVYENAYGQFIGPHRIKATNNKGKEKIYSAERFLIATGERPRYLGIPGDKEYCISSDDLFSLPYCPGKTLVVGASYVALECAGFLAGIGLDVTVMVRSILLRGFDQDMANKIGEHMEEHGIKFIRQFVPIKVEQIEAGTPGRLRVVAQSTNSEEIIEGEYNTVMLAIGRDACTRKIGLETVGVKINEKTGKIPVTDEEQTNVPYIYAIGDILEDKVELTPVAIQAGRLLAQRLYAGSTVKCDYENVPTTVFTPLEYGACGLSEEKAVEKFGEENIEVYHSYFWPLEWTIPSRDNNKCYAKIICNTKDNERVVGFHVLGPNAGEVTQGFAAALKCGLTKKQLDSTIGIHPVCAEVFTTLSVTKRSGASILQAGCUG
Briefly: (§1) Inhibition of TrxR in human SGC7901 cells. The format is cell-based.

Assay [3] addresses T2, Thioredoxin reductase 1, cytoplasmic (Homo sapiens) (UniProt Q16881).
T2 sequence (whole entry): T1 sequence (Q16881 whole entry)
The assay is described as §1. The format is cell-based.

The structures appear in SMILES notation.

What is called IC50 is the concentration at which inhibition is half-maximal. As for `COc1cc(OC)c2c(=O)c(OCCCOc3ccccc3/C=C/C(=O)/C=C/c3ccccn3)c(-c3cc(OC)c(OC)c(OC)c3)oc2c1`, the Activity in assay [1] stood at 17.95%. In addition, the half-inhibitory concentration (IC50) in assay [2] was found to be 0.783 µM. Further, the inhibition result in assay [3] was “Dose-dependent effect”.
